Source: article PMC8231256, “Influence of N-Methylation and Conformation on Almiramide Anti-Leishmanial Activity” (Molecules, 2021)
pEC50: −log10 of the molar value. Like-named read-outs stand apart in the source and are kept apart here. Where a SMILES comes first, the peptide text is derived from it. [ ]: non-standard residue; d: D form. The star is where a group is joined. NMeF = CN[C@@H](Cc1ccccc1)C(=O)O; NMeV = CN[C@H](C(=O)O)C(C)C; Hept6ynoyl = C#CCCCCC(=O)*; NMeA = CN[C@@H](C)C(=O)O; NH(CH2)6NH2 = NCCCCCCN*

Tests used:
[1] = tested on: L. infantum MF200.5 (resistant to miltefosine) promastigotes; assay type: cell-based, Leishmania infantum; settings: for pEC50: strain resistant to 200 µM miltefosine, promastigotes, 72 h, 25 °C, 95% CI in brackets (n = 3), read-out: Ldi MF-Res EC50
Experimental: (§1) The biological activity of peptides 15–37 was assessed against the L. infantum wild-type stain (WT), as well as mutants resistant to the common anti-leishmanial agents, such as antimony (Sb^III), amphotericin B (AmB) and miltefosine (MF): Sb2000.1, AmB1000.1 and MF200.5. Activity against Leishmania promastigotes was determined by monitoring the replication of parasites after 72 h of incubation at 25 °C in the presence of increasing concentrations of the different peptides […] and reported as EC50 values (Table 2). […] The greatest potencies were observed using analogs against the amphotericin B resistant strain (e.g., AmB1000.1).
(§2) The L. infantum (MHOM/MA/67/ITMAP-263) wild-type stain (WT), as well as the resistant mutants Sb2000.1, AmB1000.1 and MF200.5 [53, 54, 55, 56, 57, 58], resistant to antimony (Sb^III), amphotericin B (AmB) and miltefosine (MF), respectively, were grown in M199 medium at 25 °C supplemented with 10% fetal bovine serum, 5 μg/mL of haemin at pH 7.0 and 2000 μM Sb (Potassium antimonyl tartrate, Sigma-Aldrich), 200 μM of MF (Miltefosine, Cayman Chem., Ann Arbor, MI, USA) or 1 μM AmB (Amphotericin B solution, Sigma, Oakville, ON, Canada). Antileishmanial values were determined in Leishmania promastigotes by monitoring the replication of parasites after 72 h of incubation at 25 °C in the presence of increasing concentrations of the different peptides by measuring A600 using a Cytation 5 machine (BioTek, Winooski, VT, USA). EC50 values were calculated based on dose–response curves analyzed by non-linear regression with GraphPad Prism 8.4.3 software (GraphPad Software, La Jolla, CA, USA). An average of at least three independent biological replicates from independent cultures was performed for each determination.

[2] = tested on: L. infantum (MHOM/MA/67/ITMAP-263) wild-type strain (WT) promastigotes; assay type: cell-based, Leishmania infantum; settings: for pEC50: 72 h; for Selectivity Index: SI = CC50 (LM-1 macrophage)/EC50 Ldi WT
Experimental: as §1, §2

[3] = tested on: L. infantum Sb2000.1 (resistant to antimony) promastigotes; assay type: cell-based, Leishmania infantum; settings: strain resistant to 2 mM antimonials, 72 h, 25 °C, 95% CI in brackets (n = 3), read-out: Ldi Sb-Res EC50
Experimental: as §1, §2

[4] = tested on: L. infantum AmB1000.1 (resistant to amphotericin B) promastigotes; assay type: cell-based, Leishmania infantum; settings: for pEC50: strain resistant to 1 µM amphotericin B, promastigotes, 72 h, 25 °C, 95% CI in brackets (n = 3), read-out: Ldi AmB-Res EC50; for fold more active than nonmethylated counterpart: AmB1000.1, 17 vs 16, 35 vs 31
Experimental: as §1, §2

[5] = LM-1 macrophage cytotoxicity (Alamar Blue); assay type: cell-based, murine; settings: mouse
Experimental: The host cytotoxicity was evaluated by monitoring the survival rates of murine LM-1 macrophage at different concentrations of peptides 15–37 ([…]) over 24 h. […] Exceptionally, MeAla peptide amide 21 was 3.2- to 8-fold less toxic than the other peptide analogs.
The LM1- macrophages were grown in DMEM supplemented with 10% heat inactivated FBS. Cells at the concentration of 100,000 cells/mL were cultivated for 24 h in a 96-well plate (37 °C, 5% CO2). The culture medium was removed and fresh medium containing the appropriate drug and concentration was added to the cells, which were incubated for 24 h (37 °C, 5% CO2). Seven different concentrations were tested ([…]) as well as controls (without drugs). After 24 h, the culture medium was removed and replaced for fresh medium containing 10% Alamar Blue (Thermo Fisher Scientific, Waltham, MA, USA) and incubated for 2 h (37 °C, 5% CO2). Readings at 570 and 600 nm (Asys UVM340 Plate reader, Biochrom, Cambridge, UK) were taken and analyzed according to the manufacturer protocol. Survival rates at different drug concentrations and CC50 values were calculated using the Excel software.

[6] = MHOM/MA/67/ITMAP-263) wild-type strain (WT) promastigotes
[7] = promastigotes, 25 °C, 95% confidence interval in brackets (n = 3), read-out: Ldi WT EC50

| SMILES | pEC50 [1] | pEC50 [2, 6] | Selectivity Index [2] | pEC50 [3] | pEC50 [4] | CC50 at 24 h [5] [µM] | therapeutic index ([4]; macrophage toxicity compared with potency against the AmB resistant Leishmania strain) | pEC50 [2, 7] | fold more active than nonmethylated counterpart [4] [fold] | CC50 at 24 h ([5]; LM-1 macrophages, 24 h, Alamar Blue, read-out: CC50) [µM] | fold more active than nonmethylated counterpart ([1]; MF200.5, 35 vs 31) [fold] |
| --- | --- | --- | --- | --- | --- | --- | --- | --- | --- | --- | --- |
| C#CCCCCC(=O)N[C@H]1CCN([C@H](C(=O)N[C@H](C(=O)N[C@@H](C)C(=O)N[C@@H](Cc2ccccc2)C(=O)O)C(C)C)C(C)C)C1=O [peptide 23, HCC(CH2)4CO-Agl-Val-Val-Ala-Phe-OH] | 3.64 | 3.65 | 1.61 | 3.62 | 3.67 | 363 |  |  |  |  |  |
| C#CCCCCC(=O)N(C)[C@H](C(=O)N[C@H](C(=O)N[C@H](C(=O)N[C@@H](C)C(=O)N[C@@H](Cc1ccccc1)C(=O)NCCCCCCN)C(C)C)C(C)C)C(C)C [peptide 18, HCC(CH2)4CO-Val(Me)-Val-Val-Ala-Phe-NH(CH2)6NH2] (Hept6ynoyl-[NMeV]VVAF-{NH(CH2)6NH2}) | 4.92 | 4.44 | 4.8 | 4.40 | 5.30 | 177 | 36 |  |  |  |  |
| C#CCCCCC(=O)N(C)[C@H](C(=O)N(C)[C@H](C(=O)N(C)[C@H](C(=O)N(C)[C@@H](C)C(=O)N(C)[C@@H](Cc1ccccc1)C(=O)NCCCCCCN)C(C)C)C(C)C)C(C)C [peptide 17, HCC(CH2)4CO-Val(Me)-Val(Me)-Val(Me)-Ala(Me)-Phe(Me)-NH(CH2)6NH2] (Hept6ynoyl-[NMeV][NMeV][NMeV][NMeA][NMeF]-{NH(CH2)6NH2}) | 4.59 |  | 6.9 | 4.22 | 5.25 |  |  | 4.31 | 4 | 338 |  |
| C#CCCCCC(=O)N[C@H](C(=O)N[C@H](C(=O)N[C@H](C(=O)N[C@@H](C)C(=O)N[C@@H](Cc1ccccc1)C(=O)O)C(C)C)C(C)C)C(C)C [peptide 15, HCC(CH2)4CO-Val-Val-Val-Ala-Phe-OH] (Hept6ynoyl-VVVAF-OH) | 4.29 | 4.35 | 7.0 | 4.22 | 4.33 | 316 |  |  |  |  |  |
| C#CCCCCC(=O)N[C@H](C(=O)N[C@H](C(=O)N[C@H]1CCN([C@@H](C)C(=O)N[C@@H](Cc2ccccc2)C(=O)NCCCCCCN)C1=O)C(C)C)C(C)C [peptide 31, HCC(CH2)4CO-Val-Val-Agl-Ala-Phe-NH(CH2)6NH2] | 3.90 | 4.19 | 6.0 | 4.31 | 3.89 | 389 |  |  |  |  |  |
| C#CCCCCC(=O)N[C@H](C(=O)N[C@H]1CCN([C@H](C(=O)N[C@@H](C)C(=O)N[C@@H](Cc2ccccc2)C(=O)NCCCCCCN)C(C)C)C1=O)C(C)C [peptide 30, HCC(CH2)4CO-Val-Agl-Val-Ala-Phe-NH(CH2)6NH2] | 3.89 | 4.32 | 8.6 | 4.42 | 3.94 | 407 |  |  |  |  |  |
| C#CCCCCC(=O)N(C)[C@H]1CCN([C@H](C(=O)N(C)[C@H](C(=O)N(C)[C@@H](C)C(=O)N(C)[C@@H](Cc2ccccc2)C(=O)NCCCCCCN)C(C)C)C(C)C)C1=O [peptide 33, HCC(CH2)4CO-Agl(Me)-Val-Val(Me)-Ala(Me)-Phe(Me)-NH(CH2)6NH2] | 3.72 | 3.92 | 3.4 | 3.85 | 3.74 | 407 |  |  |  |  |  |
| C#CCCCCC(=O)N(C)[C@H](C(=O)N(C)[C@H](C(=O)N(C)[C@H]1CCN([C@@H](C)C(=O)N(C)[C@@H](Cc2ccccc2)C(=O)NCCCCCCN)C1=O)C(C)C)C(C)C [peptide 35, HCC(CH2)4CO-Val(Me)-Val(Me)-Agl(Me)-Ala-Phe(Me)-NH(CH2)6NH2] | 4.07 | 4.10 | 4.7 | 4.09 | 4.04 | 371 |  |  | 1.4 |  | 1.5 |
| C#CCCCCC(=O)N[C@H](C(=O)N(C)[C@H](C(=O)N[C@H](C(=O)N[C@@H](C)C(=O)N[C@@H](Cc1ccccc1)C(=O)NCCCCCCN)C(C)C)C(C)C)C(C)C [compound 19, HCC(CH2)4CO-Val-Val(Me)-Val-Ala-Phe-NH(CH2)6NH2] (Hept6ynoyl-V[NMeV]VAF-{NH(CH2)6NH2}) | 4.05 | 4.09 | 3.9 | 4.10 | 4.15 | 316 |  |  |  |  |  |
| C#CCCCCC(=O)N(C)[C@H](C(=O)N(C)[C@H]1CCN([C@H](C(=O)N(C)[C@@H](C)C(=O)N(C)[C@@H](Cc2ccccc2)C(=O)NCCCCCCN)C(C)C)C1=O)C(C)C [peptide 34, HCC(CH2)4CO-Val(Me)-Agl(Me)-Val-Ala(Me)-Phe(Me)-NH(CH2)6NH2] | 4.64 | 4.48 | 12.0 |  | 4.61 | 398 |  |  |  |  |  |
| C#CCCCCC(=O)N[C@H](C(=O)N[C@H](C(=O)N(C)[C@H](C(=O)N[C@@H](C)C(=O)N[C@@H](Cc1ccccc1)C(=O)NCCCCCCN)C(C)C)C(C)C)C(C)C [peptide 20, HCC(CH2)4CO-Val-Val-Val(Me)-Ala-Phe-NH(CH2)6NH2] (Hept6ynoyl-VV[NMeV]AF-{NH(CH2)6NH2}) | 4.22 | 4.27 | 5.2 | 4.40 | 4.24 | 281 |  |  |  |  |  |
| C#CCCCCC(=O)N[C@H](C(=O)N[C@H](C(=O)N[C@H]1CCN([C@@H](C)C(=O)N[C@@H](Cc2ccccc2)C(=O)O)C1=O)C(C)C)C(C)C [peptide 25, HCC(CH2)4CO-Val-Val-Agl-Ala-Phe-OH] | < 3.52 |  |  | < 3.52 | < 3.52 | 416 |  | < 3.52 |  |  |  |
| C#CCCCCC(=O)N(C)[C@H](C(=O)N(C)[C@H](C(=O)N(C)[C@H]1CCN([C@@H](C)C(=O)N(C)[C@@H](Cc2ccccc2)C(=O)O)C1=O)C(C)C)C(C)C [peptide 28, HCC(CH2)4CO-Val(Me)-Val(Me)-Agl(Me)-Ala-Phe(Me)-OH] | 3.55 | 3.59 | 0.9 | 3.60 | < 3.52 | 245 |  |  |  |  |  |
| C#CCCCCC(=O)N[C@H](C(=O)N[C@H](C(=O)N[C@H](C(=O)N[C@H]1CCN([C@@H](Cc2ccccc2)C(=O)NCCCCCCN)C1=O)C(C)C)C(C)C)C(C)C [peptide 32, HCC(CH2)4CO-Val-Val-Val-Agl-Phe-NH(CH2)6NH2] | 4.07 | 4.04 | 4.3 | 4.06 | 4.05 | 389 |  |  |  |  |  |
| C#CCCCCC(=O)N[C@H](C(=O)Nn1c(C)cn([C@H](C(=O)N[C@@H](C)C(=O)N[C@@H](Cc2ccccc2)C(=O)O)C(C)C)c1=O)C(C)C [peptide 37, HCC(CH2)4CO-Val-(5-Me)Nai-Val-Ala-Phe-OH] | < 3.52 |  |  | < 3.52 | < 3.52 | 407 |  | < 3.52 |  |  |  |
